# Source: US11028127B2, “Peptides capable of reactivating p53 mutants” (Yeda Research and Development Co. Ltd., priority 2013, dated 2021)
# What was measured:
# [1] = test system: WI-38 fibroblasts expressing mouse Noxa shRNA (WI38-m-Noxa-i); assay: Crystal violet viability assay; assay type: cell-based; conditions: 48 hours
# Procedure: (§1) FIGS. 13A and 13B are bar graphs illustrating the effect of various tested peptides on the viability of cells expressing Mut-p53, as determine by crystal violet assay. WI-38 fibroblasts expressing endogenous WT p53 were infected with retroviruses expressing either mouse Noxa shRNA (WI38-m-Noxa-i) as a nonspecific control or the R175H p53 mutant for stable overexpression of mutant p53 (WI38-175). The cells (WI38-m-Noxa-i or WI38-175) were seeded at 3000 cells per well in 96-well plates. Tested peptides were added to the cells. Different concentrations of etoposide (cytotoxic drug, 4′-Demethyl-epipodophyllotoxin 9-[4,6-O—(R)-ethylidene-beta-D-glucopyranoside], 4′-(dihydrogen phosphate) were used as positive control for cell death and as a standard reference curve to assess the effect of tested peptides. 48 hours after treatment, cells were washed with PBS to exclude dead cells and debris, and cells that remained attached to the plate were stained with crystal-violet for 30 minutes. Crystal violet was removed and cells were washed 4 times with PBS to remove residual crystal violet. Then, the stained cells were dissolved in 10% acetic acid and plates were taken for optical density measurement at 595 nM (optimal for crystal violet). The bar graphs of FIGS. 13A and 13B show the optical density reads at 595 nm, which reflect the number of cells in the plate after treatment, normalized to the non-treated (NT) samples.
# (§2) Cells were cultured in 96 wells plates with 2500-4000 cells/well in 0.1 ml and incubated overnight at 37° C. in order to adhere to the plate. Serial dilutions of different peptides (0.5 μg/ml) were added in 0.1 ml aliquots and the plates incubated for additional 48 h at 37° C. Then medium was removed and cell lysis was determined by staining the cells with crystal violet (0.5%) in methanol/water (1:4, v/v), 50 μl each well, for 10 min, followed by 3 washes with PBS. Afterwards, 10% acetic acid (50 μl) was added to each well and shaken for 10 min. Then, automatic plate reading was performed at 595 nm.
# (§3) An important indication for the reactivating peptides activity is their effect in-vivo on cancer cells that express Mut-p53. In particular, reactivating peptides that can cause specifically Mut-p53-dependent death of cancer cells, with minimal toxic effects on normal cells are desired. A crystal-violet based viability assay, in which crystal-violet is employed to stain cells that adhere to the plate and therefore the amount of dye is proportional to cell number was used to determine the effect of the various test peptides on Mut-p53-dependent death.
# (§4) Cells were plated in 96-well plates, at calibrated density that allows them to grow for 48 hours without reaching confluence. Peptides are added 6 hours later. Different concentrations of etoposide (cytotoxic drug) were used as positive control for cell death and as a standard reference curve to assess the effect of tested peptides. 48 hours after treatment, cells were washed with PBS to exclude dead cells and debris, and cells that remained attached to the plate were stained with crystal-violet for 30 minutes. Crystal-violet was removed and cells were washed with PBS 4 times to eliminate remains of crystal-violet. Then, the stained cells were dissolved in 10% acetic acid and plates were taken for optical density measurement at 595 nM (specific to crystal-violet).
# (§5) FIGS. 13A and 13B illustrate a representative experiment of screening performed on 128 synthesized peptides. In this experiment, WI-38 fibroblasts were used. These cells express endogenous WT p53 and were further infected with a virus expressing either mouse Noxa shRNA, as a nonspecific control or the R175H p53 mutant for stable overexpression of mutant p53. Both of these sub-lines (mNoxa or R175H p53) were seeded at 3000 cells per well and treated as described above. […]
# [2] = test system: WI-38 fibroblasts overexpressing R175H p53 (WI38-175); assay: Crystal violet viability assay; assay type: cell-based; conditions: 48 hours; much more prominent than in mNoxa-i control cells
# Procedure: as §1, §2, §3, §4, §5
sequence,measurement,setting,value
YRRLLIGMMWRRRRRRRRRRR [pCAP-68],"effect on cell numbers, mNoxa-i control WI-38 cells",[1],toxic effect on both cell sub-lines
same,"reduction in cell numbers, R175H p53 expressing WI-38 cells",[2],toxic effect on both cell sub-lines
